From US10052320B2, “Substituted quinoxalines as FGFR kinase inhibitors” (ASTEX THERAPEUTICS LIMITED, priority 2011, dated 2018)
Where two headings read alike, the source gives them in different places.

Experiments:
Assay type in all cases: cell-based
[1] = target: Ba/F3-FGFR3-transfected cells (Homo sapiens, UniProt P22607); test: Ba/F3-FGFR3 (minus IL3) cellular proliferation assay, Alamar Blue; conditions: for BAF3-FGFR 3 (MIN IL3) 96 well pIC50: minus IL3, 96 well; for BAF3-FGFR 3 (MIN IL3) 384 well pIC50: minus IL3, 384 well
Chain of Ba/F3-FGFR3-transfected cells (P22607 whole entry, change not shown): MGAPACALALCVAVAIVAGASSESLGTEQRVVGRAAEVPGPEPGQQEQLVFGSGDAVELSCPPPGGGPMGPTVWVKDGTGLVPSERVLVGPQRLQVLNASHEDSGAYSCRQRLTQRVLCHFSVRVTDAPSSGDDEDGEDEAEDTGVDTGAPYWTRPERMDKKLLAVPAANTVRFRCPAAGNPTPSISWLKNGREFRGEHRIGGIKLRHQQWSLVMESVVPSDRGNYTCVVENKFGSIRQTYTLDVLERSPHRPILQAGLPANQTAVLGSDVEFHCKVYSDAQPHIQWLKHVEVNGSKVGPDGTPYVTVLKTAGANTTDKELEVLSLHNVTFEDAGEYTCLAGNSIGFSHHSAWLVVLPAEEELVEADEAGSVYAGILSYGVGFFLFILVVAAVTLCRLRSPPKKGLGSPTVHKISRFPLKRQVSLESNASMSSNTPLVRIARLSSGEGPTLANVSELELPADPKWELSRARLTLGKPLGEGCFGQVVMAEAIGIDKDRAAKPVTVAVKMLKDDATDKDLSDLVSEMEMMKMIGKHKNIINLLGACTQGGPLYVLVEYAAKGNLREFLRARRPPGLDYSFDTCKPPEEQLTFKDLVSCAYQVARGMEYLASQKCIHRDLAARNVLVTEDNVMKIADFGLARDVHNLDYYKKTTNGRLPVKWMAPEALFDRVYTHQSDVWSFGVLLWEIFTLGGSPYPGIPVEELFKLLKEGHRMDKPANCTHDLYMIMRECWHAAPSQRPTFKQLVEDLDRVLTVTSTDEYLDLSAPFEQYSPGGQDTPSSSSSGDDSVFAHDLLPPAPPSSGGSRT
Method in brief: (§1)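 Ba/F3 cells transfected with FGFR3 were exposed to compound in RPMI-1640 with 10% FBS for 24 h at 37 °C, 5% CO2. Alamar Blue (resazurin) was then added for 4 h, and fluorescence was read at ex 540/em 590 nm.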

[2] = target: Ba/F3-KDR-transfected cells (Homo sapiens, UniProt P35968); test: Ba/F3-KDR (minus IL3) cellular proliferation assay, Alamar Blue
Chain of Ba/F3-KDR-transfected cells (P35968 whole entry, change not shown): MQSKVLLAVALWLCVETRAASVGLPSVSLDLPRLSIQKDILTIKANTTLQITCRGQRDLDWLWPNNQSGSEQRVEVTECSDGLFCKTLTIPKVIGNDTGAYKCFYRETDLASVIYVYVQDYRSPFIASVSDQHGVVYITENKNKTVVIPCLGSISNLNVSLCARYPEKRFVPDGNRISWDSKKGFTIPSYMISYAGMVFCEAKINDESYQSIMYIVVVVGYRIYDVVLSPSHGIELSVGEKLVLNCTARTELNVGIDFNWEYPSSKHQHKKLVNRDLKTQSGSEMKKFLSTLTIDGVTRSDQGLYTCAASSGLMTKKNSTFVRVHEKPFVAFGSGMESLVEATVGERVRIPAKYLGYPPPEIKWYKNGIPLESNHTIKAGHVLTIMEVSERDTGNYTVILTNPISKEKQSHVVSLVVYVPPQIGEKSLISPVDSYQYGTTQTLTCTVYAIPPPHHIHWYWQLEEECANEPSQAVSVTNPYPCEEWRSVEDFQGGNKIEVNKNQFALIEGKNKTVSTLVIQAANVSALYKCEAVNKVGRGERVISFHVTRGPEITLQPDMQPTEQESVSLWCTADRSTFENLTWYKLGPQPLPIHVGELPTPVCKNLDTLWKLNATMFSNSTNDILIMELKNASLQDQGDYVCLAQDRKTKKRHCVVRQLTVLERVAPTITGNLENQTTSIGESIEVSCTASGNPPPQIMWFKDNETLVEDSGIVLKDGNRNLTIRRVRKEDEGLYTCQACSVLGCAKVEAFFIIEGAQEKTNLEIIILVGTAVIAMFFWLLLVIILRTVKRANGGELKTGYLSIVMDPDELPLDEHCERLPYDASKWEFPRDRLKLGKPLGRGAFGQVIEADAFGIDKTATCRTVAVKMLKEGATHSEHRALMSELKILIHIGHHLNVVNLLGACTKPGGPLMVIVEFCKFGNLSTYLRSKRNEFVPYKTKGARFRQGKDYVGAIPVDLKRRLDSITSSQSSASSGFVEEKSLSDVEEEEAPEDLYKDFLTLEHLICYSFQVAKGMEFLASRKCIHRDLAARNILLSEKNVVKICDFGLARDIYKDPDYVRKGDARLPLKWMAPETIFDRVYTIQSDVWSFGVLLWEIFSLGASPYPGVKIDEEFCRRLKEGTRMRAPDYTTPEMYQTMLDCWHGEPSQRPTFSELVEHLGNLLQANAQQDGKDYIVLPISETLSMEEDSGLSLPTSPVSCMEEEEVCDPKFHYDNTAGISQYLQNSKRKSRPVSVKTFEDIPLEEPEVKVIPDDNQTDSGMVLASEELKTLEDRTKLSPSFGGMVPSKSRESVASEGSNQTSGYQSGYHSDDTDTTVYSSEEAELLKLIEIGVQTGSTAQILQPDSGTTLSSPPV
Method in brief: (§2)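 Ba/F3-KDR cells in phenol red free RPMI-1640 with 10% FBS were exposed to compound for 24 h at 37 °C, 5% CO2. Alamar Blue (resazurin) was then added for 4 h and fluorescence read at ex 540/em 590 nm. The counterscreen ran identically with 10 ng/ml murine IL3.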

[3] = test system: Ba/F3-Flt3-transfected cells in the presence of 10 ng/ml murine IL3; test: Ba/F3-Flt3 (plus IL3) cellular proliferation counterscreen, Alamar Blue; conditions: Mus musculus, read-out: BAF3-FLT3 (PLUS IL3) 96 well pIC50 (converted)
[4] = test system: Ba/F3-FGFR3-transfected cells in the presence of 10 ng/ml murine IL3; test: Ba/F3-FGFR3 (plus IL3) cellular proliferation counterscreen, Alamar Blue; conditions: Mus musculus
Method in brief: as §1

[5] = test system: Ba/F3-KDR-transfected cells in the presence of 10 ng/ml murine IL3; test: Ba/F3-KDR (plus IL3) cellular proliferation counterscreen, Alamar Blue; conditions: Mus musculus, plus 10 ng/ml murine IL3
Method in brief: as §2

[6] = plus 10 ng/ml murine IL3, 384 well, read-out: BAF3-FGFR 3 (PLUS IL3) 384 well pIC50 (converted)
[7] = plus IL3, 96 well, read-out: BAF3-FGFR 3 (PLUS IL3) 96 well pIC50 (converted)
[8] = read-out: BAF3-KDR (PLUS IL3) 96 well pIC50 (converted)
[9] = read-out: BAF3-KDR (PLUS IL3) 384 well pIC50 (converted)

| SMILES | BAF3-FGFR 3 (MIN IL3) 96 well pIC50 [1] | BAF3-FGFR 3 (MIN IL3) 384 well pIC50 [1] | BAF3-KDR (MIN IL3) 384 well pIC50 ([2]; minus IL3) | IC50 ([3]; plus 10 ng/ml murine IL3) [µM] | IC50 [4, 6] [µM] | IC50 [4, 7] [µM] | BAF3-KDR (MIN IL3) 96 well pIC50 ([2]; minus IL3) | IC50 [5, 8] [µM] | IC50 [5, 9] [µM] | BAF3-KDR (MIN IL3) 384 well pIC50 ([2]; minus IL3, 384 well) | IC50 ([3]; plus IL3, 96 well) [µM] |
| --- | --- | --- | --- | --- | --- | --- | --- | --- | --- | --- | --- |
| COc1cc(OC)cc(N(CC2CC2)c2ccc3ncc(-c4nccn4C)nc3c2)c1 [Compound 60] | <5 | <5 | <5 | > 10 |  |  |  |  |  |  |  |
| COc1cc(OC)cc(N(CC2CC2)c2ccc3ncc(Nc4nccs4)nc3c2)c1 [Compound 98] | <5 | <5 | <5 | > 10 |  |  |  |  |  |  |  |
| COc1cc(OC)cc(N(CC2CC2)c2ccc3ncc(-c4ccn[nH]4)nc3c2)c1 [Compound 58] | 5.56 |  | <5 | > 10 |  |  |  |  |  |  |  |
| COc1cc(OC)cc(N(CC2CC2)c2ccc3ncc(-c4cn(C)nn4)nc3c2)c1 [Compound 71] |  |  | <5 | > 10 | > 10 | > 10 | <5 | > 10 | > 10 |  |  |
| COc1cc(OC)cc(N(CC2CC2)c2ccc3ncc(-c4cn(CCO)nn4)nc3c2)c1 [Compound 40] | 5.04 | ~5.15 | <5 | > 10 | > 10 | > 10 | <5 | > 10 | > 10 |  |  |
| COc1cc(OC)cc(N(CC2CC2)c2ccc3ncc(-c4cccn4C)nc3c2)c1 [Compound 103] | <5 | <5 | <5 | > 10 |  |  |  |  |  |  |  |
| COc1cc(OC)cc(N(CC2CC2)c2ccc3ncc(-n4ccnc4C)nc3c2)c1 [Compound 32] | <5 | <5 | <5 | > 10 |  |  |  |  |  |  |  |
| COc1cc(OC)cc(N(CC2CC2)c2ccc3ncc(-c4cn(C)cn4)nc3c2)c1 [Compound 21] |  |  | <5 | > 10 |  |  | <5 |  |  |  |  |
| COc1cc(OC)cc(N(CC2CC2)c2ccc3ncc(-c4ccc5c(ccn5C)c4)nc3c2)c1 [Compound 20] |  |  |  |  |  |  |  |  |  | <5 | > 10 |
| COc1cc(OC)cc(N(CC2CC2)c2ccc3ncc(C(=O)NCCN4CCOCC4)nc3c2)c1 [Compound 96] | 5.18 | <5 | <5 | > 10 |  |  |  |  |  |  |  |
| COc1cc(OC)cc(N(CC2CC2)c2ccc3ncc(-c4nccs4)nc3c2)c1 [Compound 97] | <5 | <5 | <5 | > 10 |  |  |  |  |  |  |  |
| COc1cc(OC)cc(N(CC2CC2)c2ccc3ncc(-c4cc[nH]c4)nc3c2)c1 [Compound 36] |  |  | <5 | > 10 |  |  | <5 |  |  |  |  |
| COc1cc(OC)cc(N(CC2CC2)c2ccc3ncc(-c4nnn(C)n4)nc3c2)c1 [Compound 82] | 5.18 | <5 | <5 | > 10 |  |  | <5 |  |  |  |  |
| COc1cc(OC)cc(N(CC2CC2)c2ccc3ncc(-c4nnn[nH]4)nc3c2)c1 [Compound 41] | <5 | <5 | <5 | > 10 |  |  |  |  |  |  |  |
| COc1cc(OC)cc(N(CC2CC2)c2ccc3ncc(Nc4nncs4)nc3c2)c1 [Compound 102] | <5 | <5 | <5 | > 10 |  |  |  |  |  |  |  |
| COc1cc(OC)cc(N(CC2CC2)c2ccc3ncc(-c4cn(CCN5CCOCC5)nn4)nc3c2)c1 [Compound 24] | 5.59 | ~5.7 | <5 | > 10 |  |  | <5 |  |  |  |  |
